These results are taken from PubChem BioAssay AID1996.

For orientation: kinetic solubility means the concentration staying in solution when a stock, usually in DMSO, is diluted into the medium.

Converted amounts (≈) assume the structure as drawn.

For the data set the following is noted: buffer; pH 7.4; 200.0 µM.
As for `O=C(NCCNC(=O)c1ccc(Cl)cc1Cl)c1ccco1`, the kinetic solubility is 30.7 µg/mL (≈ 93.8 µM).

Compound `COc1ccccc1CNC(=O)COc1cccnc1[N+](=O)[O-]` had a kinetic solubility above 47.6 µg/mL.

The compound `O=C(Cc1cccc(C(F)(F)F)c1)NCc1cccnc1` registered a kinetic solubility above 44.1 µg/mL.

For the compound `C=CCON/C(CCC)=C1\C(=O)CC(C)(C)CC1=NC`, the solubility (kinetic) was 34.9 µg/mL (≈ 125 µM).

Compound `COCCN1C(=O)C(=O)/C(=C(/O)c2ccc(C)cc2)C1c1ccccn1` (stereo not given) came in with a solubility (kinetic) above 52.9 µg/mL.

Compound `O=C(O)c1cc(-c2ccc(Br)s2)nc2ccccc12` displayed a solubility (kinetic) above 50.1 µg/mL.

In turn, `COC(=O)c1scc(C)c1NS(=O)(=O)c1ccc(NC(C)=O)cc1` displayed a solubility (kinetic) above 55.3 µg/mL.

In turn, `COc1cc2ccccc2cc1C(=O)Nc1cc(C)ccn1` had a solubility (kinetic) of 4.2 µg/mL (≈ 14.4 µM).

Turning to `CCOC(=O)Cc1csc(NS(=O)(=O)c2ccc(C(F)(F)F)cc2)n1`, the solubility (kinetic) was above 59.2 µg/mL.

`CC(C(=O)N1CCCC1)N1CCN(c2ccccc2O)CC1` (stereo not given) yielded a kinetic solubility above 45.5 µg/mL.

`Cc1ccc(CNC(=O)CN2C(=O)c3ccccc3S2(=O)=O)cc1` yielded a solubility (kinetic) of 12.5 µg/mL (≈ 36.3 µM).

Compound `O=C1N=C(N2CCCC2)S/C1=C\C=C\c1ccccc1` registered a solubility (kinetic) of 10.2 µg/mL (≈ 35.9 µM).

`Cc1ccc2c(C)c(C(=O)NCCN3CCOC3=O)oc2c1C`: the solubility (kinetic) was above 47.5 µg/mL.

In the case of `CCC(=O)N/C(N)=N/c1nc(C)c2cc(C)c(C)cc2n1`, the kinetic solubility was 11.6 µg/mL (≈ 40.7 µM).

For the compound `CSc1ccc(CN2CCCN(C)CC2)cc1`, the kinetic solubility turned out to be 22.1 µg/mL (≈ 88.3 µM).

`O=C(COC(=O)CCc1c[nH]c2ccccc12)Nc1ccccc1` gave a solubility (kinetic) of 4.5 µg/mL (≈ 14 µM).

In the case of `Cc1ccccc1-n1ccnc1SCC(=O)Nc1cccc(S(=O)(=O)NC2=NCCC2)c1`, the kinetic solubility was above 70.4 µg/mL.

`Cc1cc(/C(N)=N/OC(=O)c2ccccc2Cl)no1` registered a solubility (kinetic) above 42 µg/mL.

`COC(=O)C1=C(NC(=O)c2ccccc2[N+](=O)[O-])CCS1` gave a solubility (kinetic) of 8.4 µg/mL (≈ 27.2 µM).

On to `O=C(Nc1ccccc1N1CCCC1)c1ccc([N+](=O)[O-])o1`, for which the kinetic solubility was 44.9 µg/mL (≈ 149 µM).

For the compound `Cc1cccn2cc(-c3ccc(Cl)cc3)nc12`, the solubility (kinetic) was determined as 2.7 µg/mL (≈ 11.1 µM).

Take `Cc1cccc(NC(=O)CSc2nncn2-c2ccccn2)c1`: the kinetic solubility was above 48.8 µg/mL.

For `Cc1ccc(NC(=O)C2=C(C(=O)O)CCCC2)cc1F`, the kinetic solubility worked out at 26.9 µg/mL (≈ 97 µM).

The compound `CC(C)C(OC(=O)/C=C/c1ccc2c(c1)OCO2)C(=O)NC(N)=O` (stereo not given) registered a kinetic solubility of 6.6 µg/mL (≈ 19.7 µM).

As to `Cc1ccccc1OCC(=O)Nc1ccc2oc(=O)ccc2c1`, the solubility (kinetic) was 1.1 µg/mL (≈ 3.56 µM).

Consider `CCn1cc(C(=O)NCc2ccccc2F)c(=O)c2ccc(C)nc21`, for which the solubility (kinetic) was found to be 2.9 µg/mL (≈ 8.55 µM).

For `COc1ccc(C2(C(=O)Nc3ccc(C)cc3)CCOCC2)cc1`, the solubility (kinetic) is above 48.8 µg/mL.

Regarding `S=C(Nc1ccccn1)NC1CCCCC1`, the kinetic solubility was found to be 5.7 µg/mL (≈ 24.2 µM).

`CCCc1nc2oc3c(=O)[nH]cnc3c2c2c1COC(C)(C)C2` had a solubility (kinetic) above 47 µg/mL.

Compound `CC(=O)Nc1cccc(CCc2nc3ccccc3[nH]2)c1` returned a solubility (kinetic) above 41.9 µg/mL.

`CCC(CC)C(=O)c1c[nH]c(C(=O)NCc2ccccc2)c1`: the kinetic solubility turned out to be 2.2 µg/mL (≈ 7.37 µM).

Compound `Cc1ccc(C(=O)Nc2ccc(S(=O)(=O)N3CCCC3)cc2)s1` displayed a solubility (kinetic) of 7.2 µg/mL (≈ 20.5 µM).

Compound `COc1ccc(-c2cn3cccnc3n2)cc1` had a kinetic solubility above 33.8 µg/mL.

As to `CCOc1ncccc1C(=O)NCCc1ccc(Cl)cc1`, the solubility (kinetic) is 33.7 µg/mL (≈ 111 µM).

The compound `O=C(COC(=O)Cc1c(Cl)cccc1Cl)NC1CCCC1` had a solubility (kinetic) above 49.5 µg/mL.

As to `Cc1cc(S(=O)(=O)N2CCN(C(=O)c3ccco3)CC2)ccc1F`, the kinetic solubility is above 52.9 µg/mL.

On to `CCOC(=O)c1cc(-c2c(Cl)cccc2Cl)no1`, for which the kinetic solubility is 12.1 µg/mL (≈ 42.3 µM).

Regarding `O=c1[nH]c(=O)n(C2CCCO2)cc1F` (stereo not given), the solubility (kinetic) came out at 29.9 µg/mL (≈ 149 µM).

Compound `O=C(O)C1CCCCC1C(=O)NCCCN1CCCC1=O` (stereo not given) displayed a solubility (kinetic) of 41.4 µg/mL (≈ 140 µM).

Compound `N#C/C(=C\c1cccc(O)c1)C(=O)Nc1ccc2c(c1)OCCO2` came in with a solubility (kinetic) of 2 µg/mL (≈ 6.21 µM).

In turn, `Cn1cccc1CNC(=S)Nc1ccccc1Cl` gave a kinetic solubility of 36.4 µg/mL (≈ 130 µM).

As to `Cc1ccccc1NC(=O)c1c(C)cc(=O)oc1C`, the solubility (kinetic) was above 38.6 µg/mL.

Take `O=C(Nc1nccs1)C1CC(=O)N(c2ccc(F)cc2)C1` (stereo not given): the solubility (kinetic) amounted to 9.7 µg/mL (≈ 31.8 µM).

In turn, `O=C1CC2(CCN(C(=O)c3ccc(F)c(F)c3)CC2)Oc2ccccc21` yielded a kinetic solubility above 53.6 µg/mL.

As for `Cc1ccc(C(=O)OCC(=O)NCc2ccc3c(c2)OCO3)cc1S(=O)(=O)N1CCOCC1`, the kinetic solubility is 7.2 µg/mL (≈ 15.1 µM).

Take `COC(=O)CN(C#N)c1nc(N(C)C)nc(N(C)C)n1`: the solubility (kinetic) came to 31.2 µg/mL (≈ 112 µM).

With `CC1CCN(C(=O)c2ccc(NC(=O)c3ccccc3)cc2)CC1`, the solubility (kinetic) was above 48.4 µg/mL.

The compound `CC(CC(=O)O)C(=O)c1ccc(Cl)c([N+](=O)[O-])c1` (stereo not given) showed a kinetic solubility above 40.7 µg/mL.

As to `CCCCOc1ccc(CN=C(N)N)cc1Cl`, the kinetic solubility is above 38.4 µg/mL.

The compound `Cc1cccnc1NC(=O)c1ccc(OCc2c(C)noc2C)cc1` yielded a kinetic solubility of 43.7 µg/mL (≈ 130 µM).

In the case of `O=C(NCCCNC(=O)c1cnccn1)c1ccc(Cl)cc1`, the kinetic solubility was above 47.8 µg/mL.

As for `Cc1cccc2c(N=O)c(O)n(CCc3ccccc3)c12`, the kinetic solubility worked out at 0.4 µg/mL (≈ 1.43 µM).

In turn, `CC(C)c1ccc(N2C(=O)C(Cl)=C(N3CCOCC3)C2=O)cc1` yielded a solubility (kinetic) of 9.2 µg/mL (≈ 27.5 µM).

With `CC1CN(Cc2ccccc2)c2nc3c(c(=O)[nH]c(=O)n3C)n2C1` (stereo not given), the kinetic solubility was above 48.8 µg/mL.

Compound `O=C(CSc1nc(-c2ccccc2)cc(=O)[nH]1)Nc1ccccc1` had a solubility (kinetic) of 1.3 µg/mL (≈ 3.85 µM).

`COC(CN(C)C(C(=O)NC1CCCCC1)c1ccccc1)OC` (stereo not given) came in with a solubility (kinetic) above 50.2 µg/mL.

Take `COc1ccccc1C(=O)NCCC(=O)NC1=NCCS1`: the solubility (kinetic) was above 46.1 µg/mL.

In turn, `NC(=S)c1cc2cc(Cl)ccc2oc1=O` came in with a kinetic solubility of 1.6 µg/mL (≈ 6.68 µM).

In turn, `CCOC(=O)c1[nH]cnc1C(=O)Nc1ccc(Cl)cc1` registered a solubility (kinetic) of 2.2 µg/mL (≈ 7.49 µM).

The compound `COc1ccc(C(=O)Nc2cccc(S(=O)(=O)NC3=NCCC3)c2)cc1OC` returned a kinetic solubility of 40.4 µg/mL (≈ 100 µM).

Consider `Cc1cccc(NC(=O)CCNC(=O)c2ccccc2)c1`, for which the solubility (kinetic) came out at 41.5 µg/mL (≈ 147 µM).

In turn, `O=C(c1ccc([N+](=O)[O-])cc1)N1CCN(c2ncccn2)CC1` registered a solubility (kinetic) of 46.3 µg/mL (≈ 148 µM).

Compound `Cc1csc(NC(=O)c2cncc(Br)c2)n1` showed a kinetic solubility of 4.7 µg/mL (≈ 15.8 µM).

In the case of `CC(=O)Nc1ccc(S(=O)(=O)NCCCc2ccccc2)cc1`, the kinetic solubility was above 49.9 µg/mL.

Take `O=C(CCCCCCC(=O)NCc1ccccc1)NCc1ccccc1`: the solubility (kinetic) is 1.4 µg/mL (≈ 3.97 µM).

For `CC(=O)c1cccc(NC(=O)c2cnccn2)c1`, the solubility (kinetic) is above 36.2 µg/mL.

Regarding `CC(=O)N[C@H]1C(O)O[C@H](CO)[C@@H](O)[C@@H]1O` (stereo not given in full), the solubility (kinetic) is above 33.2 µg/mL.

For `CN(CC(=O)Nc1ccc(C(N)=O)cc1)S(=O)(=O)c1ccc2c(c1)OCCO2`, the solubility (kinetic) came out at 9.4 µg/mL (≈ 23.2 µM).

The compound `COc1ccc(NC(=O)C2COc3ccccc3O2)cc1` (stereo not given) showed a solubility (kinetic) above 42.8 µg/mL.

For `Cc1cccc(C(=S)N2CCOCC2)n1`, the kinetic solubility is above 33.3 µg/mL.

In the case of `Cc1ccc(SCCC(=O)Nc2nccs2)cc1`, the kinetic solubility is 2.5 µg/mL (≈ 8.98 µM).

Turning to `O=S(=O)(c1cccc2nonc12)N1CCCCC1`, the solubility (kinetic) is above 40.1 µg/mL.

In turn, `CCC(=O)NC(c1ccc(C)cc1)c1ccc2cccnc2c1O` (stereo not given) displayed a kinetic solubility of 1.6 µg/mL (≈ 4.99 µM).

`Cl.Oc1ccc(Nc2ncnc3ccccc23)cc1` had a kinetic solubility of 13.7 µg/mL.

As to `CCOc1ccc(N2CC(C(=O)Nc3ccncc3)CC2=O)cc1` (stereo not given), the solubility (kinetic) is above 48.8 µg/mL.
